In ChEMBL document CHEMBL5380843 (J Med Chem, 2023):

What was measured:
[1] = system: Human immunodeficiency virus 1; assay: Antiviral activity against wild type HIV-1 IIIB infected in human MT4 cells assessed as protection against virus-induced cytopathic effect incubated for 5 days by MTT assay; assay type: functional, organism-based; conditions: Human immunodeficiency virus 1, IIIB, MT4, 120 h
[2] = Resistant factor, ratio of EC50 for antiviral activity against HIV-1 IIIB harboring reverse transcriptase Y188L mutant to EC50 for antiviral activity against wild type HIV-1 IIIB; assay type: functional
[3] = Resistant factor, ratio of EC50 for antiviral activity against HIV-1 IIIB harboring reverse transcriptase […] mutant to EC50 for antiviral activity against wild type HIV-1 IIIB; assay type: functional
[4] = target: Human immunodeficiency virus type 1 reverse transcriptase (Human immunodeficiency virus 1, UniProt Q72547); assay: Inhibition of recombinant wild type HIV-1 reverse transcriptase using DNA/RNA as substrate incubated for 40 mins by Pico-green dye based spectrofluorometric analysis
[5] = system: Human immunodeficiency virus 1; assay: Antiviral activity against wild type HIV-1 IIIB harboring reverse transcriptase Y181C mutant infected in human MT4 cells assessed as protection against virus-induced cytopathic effect incubated for 5 days by MTT assay; assay type: functional, organism-based; conditions: Human immunodeficiency virus 1, IIIB, MT4, 120 h
[6] = Resistant factor, ratio of EC50 for antiviral activity against HIV-1 IIIB harboring reverse transcriptase Y181C mutant to EC50 for antiviral activity against wild type HIV-1 IIIB; assay type: functional
[7] = Resistant factor, ratio of EC50 for antiviral activity against HIV-1 IIIB harboring reverse transcriptase K103N mutant to EC50 for antiviral activity against wild type HIV-1 IIIB; assay type: functional
[8] = Selectivity index, ratio of CC50 for cytotoxicity against human MT4 cells to EC50 for antiviral activity against wild type HIV-1 IIIB infected in human MT4 cells; assay type: toxicity, cell-based; conditions: read-out: Ratio CC50/EC50
[9] = system: Human immunodeficiency virus 1; assay: Antiviral activity against wild type HIV-1 IIIB harboring reverse transcriptase K103N mutant infected in human MT4 cells assessed as protection against virus-induced cytopathic effect incubated for 5 days by MTT assay; assay type: functional, organism-based; conditions: Human immunodeficiency virus 1, IIIB, MT4, 120 h
[10] = system: Human immunodeficiency virus 1; assay: Antiviral activity against wild type HIV-1 IIIB harboring reverse transcriptase […] mutant infected in human MT4 cells assessed as protection against virus-induced cytopathic effect incubated for 5 days by MTT assay; assay type: functional, organism-based; conditions: Human immunodeficiency virus 1, IIIB, MT4, 120 h
[11] = Resistant factor, ratio of EC50 for antiviral activity against HIV-1 IIIB harboring reverse transcriptase E138K mutant to EC50 for antiviral activity against wild type HIV-1 IIIB; assay type: functional
[12] = system: Human immunodeficiency virus 1; assay: Antiviral activity against wild type HIV-1 IIIB harboring reverse transcriptase Y188L mutant infected in human MT4 cells assessed as protection against virus-induced cytopathic effect incubated for 5 days by MTT assay; assay type: functional, organism-based; conditions: Human immunodeficiency virus 1, IIIB, MT4, 120 h
[13] = Cytotoxicity against human MT4 cells assessed as reduction in cell viability incubated for 5 days by MTT assay; assay type: toxicity, cell-based; conditions: time 5 day
[14] = system: Human immunodeficiency virus 1; assay: Antiviral activity against wild type HIV-1 IIIB harboring reverse transcriptase E138K mutant infected in human MT4 cells assessed as protection against virus-induced cytopathic effect incubated for 5 days by MTT assay; assay type: functional, organism-based; conditions: Human immunodeficiency virus 1, IIIB, MT4, 120 h

Row | SMILES | EC50 [1] | Ratio EC50 [2] | Ratio EC50 [3] | IC50 [4] | EC50 [5] | Ratio EC50 [6] | Ratio EC50 [7] | selectivity ratio [8] | EC50 [9] | EC50 [10] | Ratio EC50 [11] | EC50 [12] | CC50 at 120 h [13] | EC50 [14]
1 | Cc1cc(-c2ccc(C#N)cc2)cc(C)c1Oc1nc(Nc2ccc(C#N)cc2)ncc1C(=O)NC1CCC1 | 65 nM | 20 | 6.1 | 327 nM | 1020 nM | 16 | 4.7 | > 3750 | 308 nM | 396 nM | 2.6 | 1320 nM | > 243000 nM | 171 nM
2 | CCONC(=O)c1cnc(Nc2ccc(C#N)cc2)nc1Oc1c(C)cc(-c2ccc(C#N)cc2)cc1C | 5 nM | 25 | 6.1 | 94 nM | 46 nM | 8.2 | 2.1 | > 44200 | 12 nM | 34 nM | 1.3 | 138 nM | > 248000 nM | 7 nM
3 | CCNC(=O)c1cnc(Nc2ccc(C#N)cc2)nc1Oc1c(C)cc(-c2ccc(C#N)cc2)cc1C | 6 nM | 14 | 3.7 | 135 nM | 68 nM | 10 | 1.9 | 22500 | 13 nM | 25 nM | 4.2 | 95 nM | 151000 nM | 28 nM
4 | N#Cc1ccc(Nc2ncc(C(N)=O)c(Oc3ccc(-c4ccc(C#N)cc4)cc3Cl)n2)cc1 | 102 nM | 2150 | 746 | 28 nM | 129000 nM | 1261 | 54 | > 2650 | 5530 nM | 76000 nM | 8 | 219000 nM | > 270000 nM | 821 nM
5 | Cc1cc(/C=C/C#N)cc(C)c1Nc1ccnc(Nc2ccc(C#N)cc2)n1 [RILPIVIRINE] |  |  |  |  | 4 nM |  |  |  | 1 nM | 2 nM |  |  |  | 
6 | Cc1cc(C#N)cc(C)c1Oc1nc(Nc2ccc(C#N)cc2)nc(N)c1Br [ETRAVIRINE] | 6 nM |  |  |  | 12 nM |  |  |  | 3 nM | 7 nM |  | 20 nM | > 4610 nM | 7 nM
7 | C#CCNC(=O)c1cnc(Nc2ccc(C#N)cc2)nc1Oc1c(C)cc(-c2ccc(C#N)cc2)cc1C | 5 nM | 11 | 2.9 | 72 nM | 31 nM | 5.5 | 1.6 | 25700 | 9 nM | 16 nM | 2.3 | 59 nM | 145000 nM | 13 nM
8 | Cc1cc(-c2ccc(C#N)cc2)cc(C)c1Oc1nc(Nc2ccc(C#N)cc2)ncc1C(N)=O | 16 nM | 9.4 | 1.4 | 26 nM | 206 nM | 13 | 1.6 | > 2760 | 26 nM | 22 nM | 2.4 | 150 nM | > 43400 nM | 39 nM
9 | COc1cc(-c2ccc(C#N)cc2)ccc1Oc1nc(Nc2ccc(C#N)cc2)ncc1C(N)=O | 18 nM | 11 | 0.3 | 28 nM | 136 nM | 7.6 | 0.2 | > 15300 | 4 nM | 6 nM | 1 | 191 nM | > 276000 nM | 
10 | Cc1cc(-c2ccc(C#N)cc2)cc(C)c1Oc1nc(Nc2ccc(C#N)cc2)ncc1C(=O)NCCO | 3 nM | 13 | 3.9 | 55 nM | 29 nM | 8.8 | 1.8 | > 11900 | 6 nM | 13 nM | 1.8 | 44 nM | > 39600 nM | 6 nM
11 | CCCNC(=O)c1cnc(Nc2ccc(C#N)cc2)nc1Oc1c(C)cc(-c2ccc(C#N)cc2)cc1C | 13 nM | 21 | 4.2 | 191 nM | 196 nM | 15 | 2.4 | 14700 | 31 nM | 55 nM | 3 | 275 nM | 86600 nM | 39 nM
12 | O=C1Nc2ccc(Cl)cc2[C@@](C#CC2CC2)(C(F)(F)F)O1 [EFAVIRENZ] | 7 nM |  |  |  | 7 nM |  |  |  | 102 nM | 44 nM |  | 290 nM | > 6340 nM | 6 nM
13 | Cc1cc(-c2ccc(C#N)cc2)cc(Cl)c1Oc1nc(Nc2ccc(C#N)cc2)ncc1C(N)=O | 33 nM | 2.8 | 1.5 | 66 nM | 35 nM | 1.1 | 0.9 | > 1270 | 31 nM | 49 nM | 0.2 | 94 nM | > 41600 nM | 5 nM
14 | N#Cc1ccc(Nc2nccc(Oc3ccc4cc(C#N)ccc4c3Br)n2)cc1 |  |  |  |  |  |  |  | 181000 |  |  |  |  | 283000 nM | 
15 | Cc1cc(-c2ccc(C#N)cc2)cc(C)c1Oc1nc(Nc2ccc(C#N)cc2)ncc1C(=O)NC1CCCC1 | 145 nM | 32 | 12 | 329 nM | 3350 nM | 23 | 6.6 | > 1630 | 960 nM | 1780 nM | 4 | 4650 nM | > 236000 nM | 573 nM
16 | Cc1cc(-c2ccc(C#N)cc2)cc(C)c1Oc1nc(Nc2ccc(C#N)cc2)ncc1C(=O)NC(C)C | 37 nM | 15 | 3.9 | 199 nM | 334 nM | 9 | 2.2 | 1750 | 82 nM | 144 nM | 1.9 | 563 nM | 64700 nM | 71 nM
17 | Cc1cc(-c2ccc(C#N)cc2)cc(C)c1Oc1nc(Nc2ccc(C#N)cc2)ncc1C(=O)NCCCO | 5 nM | 8.9 | 2.7 | 71 nM | 51 nM | 9.1 | 1.6 | 5590 | 9 nM | 15 nM | 0.9 | 50 nM | 31400 nM | 
18 | Cc1ccnc2c1NC(=O)c1cccnc1N2C1CC1 [NEVIRAPINE] |  |  |  |  | > 15900 nM |  |  |  | > 10100 nM | 2100 nM |  | > 15900 nM | > 15000 nM | 210 nM
